Here are results for 22 compounds from patent US9862730B2, “Imidazothiadiazole derivatives as protease activated receptor 4 (PAR4) inhibitors for treating platelet aggregation” (BRISTOL-MYERS SQUIBB COMPANY, priority 2012, dated 2018).

The target in data set [1] is T1, PAR4 (Homo sapiens (Human), UniProt Q96RI0). Description: FLIPR assay in PAR4-expressing HEK293 cells (PAR4 antagonist activity, calcium mobilization). The format is cell-based. The note with it: FLIPR assay as described in Example A. A digest of the protocol:
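Calcium-flux antagonist readout: compounds preincubated 30 min at room temperature with PAR4-transfected HEK293 cells in HBSS with 10 mM HEPES (0.67% DMSO final), then agonist peptide added. Agonist activity checked on compound addition; cells carry endogenous PAR1.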

Data set [2] concerns platelet aggregation in human PRP. Description: Tissue factor-induced platelet aggregation assay. Type of data set: cell-based. As to conditions: tissue factor and CaCl2. The text has this: Example E is a tissue factor-induced platelet aggregation assay. The conditions in this assay mimic the physiological events during thrombus formation. In this assay, platelet aggregation in human PRP was initiated by the addition of tissue factor and CaCl2. Tissue factor, the initiator of the extrinsic coagulation cascade, is highly elevated in human atherosclerotic plaque. Exposure of blood to tissue factor at the atherosclerotic site triggers a robust generation of thrombin and induces the formation of obstructive thrombi.
(§1) The platelet rich plasma was isolated by centrifugation at 170 g for 14 minutes.
The ability of PAR1 or PAR4 antagonist to inhibit platelet aggregation induced by endogenous thrombin was tested in a tissue factor driven aggregation assay. The compounds were pre-incubated with PRP for 2 min (FIGS. 3 and 4). Aggregation is initiated by addition of CaCl2 and recombinant human tissue factor, which results in the generation of thrombin through activation of the coagulation pathway in the plasma. Anticoagulant agents such as corn trypsin inhibitor (Haematologic Technologies, Essex Junction, Vt.) at 50 μg/ml and PEFABLOC® FG (Centerchem, Norwalk, Conn.) are also added to the sample to prevent fibrin clot formation during the time of the study. Platelet aggregation is monitored using standard instrumentation including optical aggregometer or impedance aggregometer.

For another data set, the system named is human washed platelets. Nature of the data set: Alpha-thrombin induced platelet aggregation assay. The note with it: for IC50: Homo sapiens, Platelet, 0.1 h, AUC at 6 min, read-out: IC50 for the inhibition of platelet aggregation. Type of data set: cell-based. The procedure:
Example D is an alpha-thrombin-induced platelet aggregation assay. Alpha-thrombin activates both PAR1 and PAR4.
Human blood was collected in ACD (85 mM tri-sodium citrate, 78 mM citric acid, 110 mM D-glucose, pH 4.4) at a ratio of 1.4 ml per 10 ml blood. PRP was isolated by centrifugation at 170 g for 14 minutes and platelets were further pelleted by centrifugation at 1300 g for 6 minutes. Platelets were washed once with 10 ml ACD containing 1 mg/ml bovine serum albumin. Platelets were resuspended at ˜2.5×10^8/ml in Tyrode's Buffer (137 mM NaCl, 2 mM KCl, 1.0 mM MgCl2, 1 mM CaCl2, 5 mM glucose, 20 mM HEPES pH 7.4).
The ability of PAR4 antagonist to inhibit platelet aggregation induced by alpha-thrombin was tested using human washed platelets. […] Aggregation was initiated by addition of 2.5 or 5 nM alpha-thrombin (Haematologic Technologies, Essex Junction, Vt.) to 240 μl of washed platelets at stirring speed of 1200 rpm. […] IC50 was calculated using vehicle control as 0% inhibition.

Data set [3] has as its system electrolytic injury-induced carotid artery thrombosis. Nature of the data set: Cynomolgus monkey electrolytic injury-induced carotid artery thrombosis model. Type of data set: in vivo. The note with it: oral, dose response. The source says:
The efficacy of the PAR4 antagonists of the present invention in preventing thrombosis can also be measured in a variety of in vivo assays. Exemplary mammals that can provide models of thrombosis and hemostasis to test the effectiveness of the PAR4 antagonists of the present invention as antithrombotic agents include, but are not limited to, guinea pigs and primates. Relevant efficacy models include, but are not limited to, electrolytic injury-induced carotid artery thrombosis, FeCl3-induced carotid artery thrombosis and arteriovenous-shunt thrombosis. […]
On the day of the study, compounds or vehicles were administered orally at 1 to 2 hours before the experiment. […] Blood pressure and heart rate were monitored to maintain normal vital signs.
Carotid blood flow was measured with an appropriately sized TRANSONIC® flow probe and a TRANSONIC® perivascular flowmeter (TS420 Model, Transonic Systems Inc., Ithaca, N.Y.). It was continuously recorded over a 90-min period to monitor thrombosis-induced occlusion. Integrated carotid blood flow was measured by the area under the flow-time curve. It was expressed as percent of total control carotid blood flow, which would result if control blood flow had been maintained continuously for 90 min. […]

The conditions of data set [4]: ACS patients, phase III; cited from earlier work.
The target of data set [5] is T1, PAR4. Nature of the data set: Gamma thrombin induced platelet aggregation assay in PRP (PRP assay). Type of data set: cell-based.
Excerpt: The compounds of the current invention can be tested in vitro for their ability to inhibit platelet aggregation induced by gamma-thrombin as shown in Example C. Gamma-thrombin, a proteolytic product of alpha-thrombin which no longer interacts with PAR1, selectively cleaves and activates PAR4 (Soslau, G. et al., “Unique pathway of thrombin-induced platelet aggregation mediated by glycoprotein Ib”, J. Biol. Chem., 276:21173-21183 (2001)). Platelet aggregation can be monitored in a 96-well microplate aggregation assay format or using standard platelet aggregometer. The aggregation assay can also be employed to test the selectivity of the compound for inhibiting platelet aggregation induced by PAR4 agonist peptides, PAR1 agonist peptide, ADP, or thromboxane analogue U46619.
as §1
The ability of the compounds of the current invention to inhibit platelet aggregation induced by gamma-thrombin was tested in a 96-well microplate aggregation assay format. Briefly, PRP or washed platelet suspension (100 μl) was pre-incubated for 5 minutes at room temperature with varying concentrations of compounds. Aggregation was initiated by ˜10-50 nM gamma thrombin (Haematologic Technologies, Essex Junction, Vt.), which was titrated daily to achieve 80% platelet aggregation. Refludan at 1 U/mL (Berlex, Montville, N.J.) was added to the gamma thrombin sample to prevent PAR1 activation induced by residual alpha-thrombin contamination. The plate was then placed into a 37° C. Molecular Devices (Sunnyvale, Calif.) SPECTRAMAX® Plus Plate Reader. […] Data was collected with SOFTMAX® 4.71 software. The plate also included an untreated control sample which served as ODmax, while buffer containing no platelets was the ODmin. Platelet aggregation was determined by subtracting the ODmax from the ODmin for the 100% aggregation value. In experimental samples, the observed transmission was subtracted from the minimum value and then compared to the 100% aggregation value to determine the percentage aggregation. IC50 values are determined using Excel Fit software.
As indicated above, the PRP assay, an in vitro assay, measures the PAR4 antagonist activity of compounds tested as described in Example C.

Like-named read-outs stand apart in the source and are kept apart here.

Usually IC50 stands for the concentration needed to halve the response being measured.

T1 sequence (Q96RI0 18-385): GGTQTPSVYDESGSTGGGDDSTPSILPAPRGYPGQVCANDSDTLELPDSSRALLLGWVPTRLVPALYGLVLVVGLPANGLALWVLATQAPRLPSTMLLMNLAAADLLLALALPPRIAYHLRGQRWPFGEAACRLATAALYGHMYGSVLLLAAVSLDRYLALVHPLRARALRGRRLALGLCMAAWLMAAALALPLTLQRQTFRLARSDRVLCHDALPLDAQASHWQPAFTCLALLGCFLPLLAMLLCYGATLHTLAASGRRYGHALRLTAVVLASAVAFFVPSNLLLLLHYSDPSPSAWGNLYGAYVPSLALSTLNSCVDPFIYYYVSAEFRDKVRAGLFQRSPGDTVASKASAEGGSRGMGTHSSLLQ

As to `COc1cc(OC)c2cc(-c3cn4nc(OC)sc4n3)oc2c1` [Example 73], the concentration for half-maximal inhibition (IC50) on PAR4 [1] was found to be 0.99 nM. Further, in data set [2], the “inhibition of tissue factor-induced platelet aggregation (FIGS. 3 and 4)” value is listed as “effective inhibition”.
`COc1cc(OCc2ccccc2)c2cc(-c3cn4nc(OC)sc4n3)oc2c1` [Example 203, 6-(4-(Benzyloxy)-6-methoxybenzofuran-2-yl)-2-methoxyimidazo[2,1-b][1,3,4]thiadiazole]: in the data set on human washed platelets (5 nM alpha-thrombin), the “inhibition of alpha-thrombin-induced platelet aggregation (FIG. 2)” value is reported as “dose-dependent inhibition”. Besides, the IC50 in the data set on human washed platelets (5 nM alpha-thrombin, n=3) stood at 6900 ± 300 nM; in the data set on human washed platelets ([…] alpha-thrombin, n=4), 1100 ± 900 nM.
For the compound `COc1cc(OCc2cccc(OCc3ccccc3)c2)c2cc(-c3cn4nc(OC)sc4n3)oc2c1` [Example 205, 6-(4-((3-(Benzyloxy)benzyl)oxy)-6-methoxybenzofuran-2-yl)-2-methoxyimidazo[2,1-b][1,3,4]thiadiazole], the “antithrombotic efficacy / inhibition of thrombus formation (FIG. 5)” value in data set [3] is “demonstrating the in vivo antithrombotic efficacy”.
With `CCOC(=O)N[C@@H]1CC[C@@H]2[C@@H](C1)C[C@H]1C(=O)O[C@H](C)[C@H]1[C@H]2/C=C/c1ccc(-c2cccc(F)c2)cn1` [vorapaxar], in data set [4], the cardiovascular events entry was “did not significantly reduce cardiovascular events” and the “risk of major bleeding” value is recorded as “significantly increased the risk of major bleeding”.
In the case of `COc1nn2cc(-c3cc4c(OCc5cccc(OCc6cccc(C)c6)c5)c(Cc5ccccc5)c(OC)cc4o3)nc2s1` [Example 387], the values for the IC50 at PAR4 [1] and on PAR4 [5] were 41.5 nM and 2400 nM, respectively.
As to `COc1cc(OCc2cccc(OCc3cc(OC(C)C)cc(OC(C)C)c3)c2)c2cc(-c3cn4nc(OC)sc4n3)oc2c1` [Example 371], the IC50 on PAR4 [1] worked out at 7.56 nM; against PAR4 [5], 6910 nM.
On the same counts, the results for `COc1cc(OCc2cccc(OCc3cc(Cl)cc(Cl)c3)c2)c2cc(-c3cn4nc(OC)sc4n3)oc2c1` [Example 376] are 7.27 nM and 677 nM.
As to `COc1cc(OCc2cccc(OCc3csc(C)n3)c2)c2cc(-c3cn4nc(OC)sc4n3)oc2c1` [Example 399], the 50% inhibitory concentration (IC50) at PAR4 [1] amounted to 0.59 nM; at PAR4 [5], 4.95 nM.
`CSc1nn2cc(-c3cc4c(OCc5ccccc5)cc(OCc5ccccc5)cc4o3)nc2s1` [Example 253]: the 50% inhibitory concentration (IC50) was 114 nM on PAR4 [1] and > 30000 nM on PAR4 [5].
Take `COc1cc(OCc2cccc(OCc3ccc(F)c(F)c3F)c2)c2cc(-c3cn4nc(OC)sc4n3)oc2c1` [Example 325]: the 50% inhibitory concentration (IC50) came to 1.64 nM at PAR4 [1] and 86.2 nM against PAR4 [5].
Turning to `CCOc1cccc2cc(-c3cn4nc(OC)sc4n3)oc12` [Example 34], the half-maximal inhibitory concentration (IC50) on PAR4 [1] is 149 nM; against PAR4 [5], > 30000 nM.
For `COc1cc(OCc2cccc(OCc3cccc(OC)c3OC)c2)c2cc(-c3cn4nc(OC)sc4n3)oc2c1` [Example 353], the IC50 is 2.25 nM on PAR4 [1] and 10.5 nM on PAR4 [5].
Turning to `COc1nn2cc(-c3cc4c(OCc5ccccc5)cc(OCc5ccccc5)cc4o3)nc2s1` [Example 255], the 50% inhibitory concentration (IC50) on PAR4 [1] is 113 nM; against PAR4 [5] it was > 30000 nM.
On the same counts, the results for `CCC(C)(C)c1ccc2oc(-c3cn4nc(SC)sc4n3)nc2c1` [Example 131] are 107 nM and > 30000 nM.
The corresponding values for `COc1cc(OCc2ccc(F)cc2)c2cc(-c3cn4nc(C(C)(F)F)sc4n3)oc2c1` [Example 304] are 55.6 nM and > 30000 nM.
In the case of `COc1ccc(COc2cccc(COc3cc(OC)cc4oc(-c5cn6nc(OC)sc6n5)cc34)c2)cc1` [Example 392], the IC50 at PAR4 [1] is 1.44 nM; on PAR4 [5], 105 nM.
With `COc1cc(OCc2cccc(OCc3cccnc3)c2)c2cc(-c3cn4nc(OC)sc4n3)oc2c1` [Example 398], the IC50 at PAR4 [1] was found to be 2.14 nM; against PAR4 [5] it was 66.2 nM.
For the compound `COc1nn2cc(-c3cc4c(OCc5cccc(OCc6ccccc6)c5)cc(OC)c(Cl)c4o3)nc2s1` [Example 415, 6-(4-((3-(Benzyloxy)benzyl)oxy)-7-chloro-6-methoxybenzofuran-2-yl)-2-methoxyimidazo[2,1-b][1,3,4]thiadiazole], the IC50 on PAR4 [1] is 513 nM; against PAR4 [5], 3270 nM.
`COc1cc(OCc2cccc(OCc3ccccc3)c2)c2cc(-c3cn4nc(Cl)sc4n3)oc2c1` [Example 405]: the IC50 on PAR4 [1] came out at 4.69 nM; against PAR4 [5], 544 nM.
Turning to `CSc1nn2cc(-c3nc4c(OCc5cccc(OCc6ccccc6)c5)cccc4o3)nc2s1` [Example 173], the half-inhibitory concentration (IC50) on PAR4 [1] amounted to 39.4 nM; at PAR4 [5] it was 5280 nM.
In the case of `CCOc1cc(OCc2cccc(OCc3ccccc3)c2)c2cc(-c3cn4nc(OC)sc4n3)oc2c1` [Example 426], the values for the IC50 on PAR4 [1] and against PAR4 [5] were 4.56 nM and 566 nM, respectively.
Turning to `COc1nn2cc(-c3nc4c(C)cccc4o3)nc2s1` [Example 129], the IC50 at PAR4 [1] is 32 nM; at PAR4 [5], > 30000 nM.
